From patent EP0385952A2, “Use of a naphthalenmethanamino derivative as antiinflammatory agent and pharmaceutical compositions containing it” (SANDOZ AG, priority 1989, dated 1990) come the findings set out here.

Test [1] deals with OF₁-mouse resident peritoneal macrophages. In words: Zymosan-induced release of TXB₂, PGE₂ and LTC₄. The class given is cell-based. To be noted: Peritoneal macrophage, 2 hours. The protocol:
The test compound is added in various concentrations to monolayers of OF₁-mouse resident peritoneal macrophages isolated as described in J. Schnyder and M. Baggiolini, J. Exp. Med. 148 (1978) 435-450. 0.5 ml of the suspension containing 1.2 x 10⁶ cells/ml DMEM (Dulbecco's modified Eagles medium, non-essential amino acids, 2 mM L-glutamine, 100 U/ml penicillin/streptomycin) containing 2 % heat-inactivated fetal calf serum and 20 U heparin/ml is added to each well of 24-well plates (diameter 1.6 cm) and allowed to adhere at 37°C for 2 hours in 5 % CO₂/air. The monolayers are then washed with PBS and 0.5 ml DMEM containing 1 % heat-inactivated fetal calf serum added. Various concentrations of the test substance in the same medium (containing a maximum final concentration of 1 % DMSO) are added, the final volume being 0.98 ml, and after 10 minutes at 37°C, the cells are stimulated by addition of 20 µl of a 1-20 v/v dilution of zymosan particles (Sigma Chemie, Deisenhofen, FRG) in 50 mg/ml PBS. After 2 hours at 37° C, the media are removed, centrifuged at 1300 g for 5 minutes and decanted. The cells are lysed with 1ml 0.01 % digitonin. The supernatants are then analysed by radioimmunoassay procedures for thromboxane B₂, prostaglandin E₂ and leukotriene C₄. Lactate dehydrogenase activities in the medium and cell lysates are also measured as an indication of cell toxicity.

In test [2] the test system is Peritoneal exudate cells of NMRI mice (macrophage population). In words: TPA-induced prostaglandin E₂ (PGE₂) release. In kind it is cell-based. To be noted: Mus musculus, TPA 20 ng/ml, 1h, read-out: IC₅₀ for the inhibition of TPA-induced PGE₂ release. The protocol: Peritoneal exudate cells of NMRI mice (strain NMRI) pretreated with 1.5 ml thioglycollate ip 3 days previously are harvested by peritoneal lavage, washed in phosphate-buffered saline (PBS without Ca⁺⁺ and Mg⁺⁺) and resuspended in DMEM medium supplemented with 10 % fetal calf serum (FCS). 1x10⁶ cells in 1 ml are placed into wells of Costar-24 tissue culture plates and cells are allowed to adhere for 24 hours at 37°C and 5 % CO₂. Cells are then washed twice with PBS and the remaining, more than 95 % pure macrophage population is stimulated with 12-O-tetradecanoylphorbol-13-acetate (TPA) (20 ng/ml, 1h) in DMEM medium without FCS. Conditioned media are centrifuged and PGE₂ levels are determined using a ¹²⁵I radioimmunoassay. Samples are assayed in duplicate. Inhibition of PGE₂ release by test compounds is calculated as percent inhibition compared to the controls.

The next test relates to human keratinocytes. In words: Inhibition of TPA-stimulated PGE₂ synthesis of human keratinocytes. The class given is cell-based. To be noted: Keratinocyte, TPA 100 ng/ml, 24 hours, read-out: IC₅₀, inhibition of TPA-stimulated PGE₂ synthesis. As to the method:
Cultures of human keratinocytes are obtained by trypsinisation of neonatal human foreskins. The keratinocyte cultures are grown in a supplemented keratinocyte growth medium (KGM; Clonetics) using culture flasks. Passages 3-5 of 80-90 % confluent keratinocytes are resuspended in KGM at a concentration of 1x10⁵ cells/ml and 0.1 ml are plated into 96 well-microtiter plates in the presence of test compound. For the stimulation of PGE₂ release human keratinocytes or the HACAT human skin keratinocyte cell line [P. Boukamp et al., J. Cell Biol. 106 (1988) 761-771] are grown to confluence in KGM medium and stimulated with TPA (100 ng/ml) for 24 hours. Conditioned media are centrifuged and concentrations of PGE₂ are determined using a ¹²⁵I radioimmunoassay (NEN, Boston, Mass.). Each sample is assayed in duplicate.

A further test has as its system neutrophils. In words: Neutrophil exocytosis assay (FMLP-stimulated enzyme release). In kind it is cell-based.
The subject of a further test is 5,12-lipoxygenase. In words: 5,12-lipoxygenase inhibition (neutrophil functions). The following applies: read-out: IC₅₀ for 5,12-lipoxygenase. In kind it is cell-based.
Another test has as its system bovine platelets. In words: Thrombin-stimulated release from platelets. The class given is cell-based. The following applies: Bos taurus, Platelet.
The test system of test [3] is NMRI mice. In words: Arachidonic acid-induced pinnal swelling in mice (irritant contact dermatitis, 2.1.1.). The class given is in vivo. The following applies: prophylactic, epicutaneous, pinnal weight. The protocol:
(§1) Skin irritation with arachidonic acid or cantharidin is often used to experimentally induce inflammation in order to evaluate the anti-inflammatory activity of a compound [see e.g. Inflammation 8 (1984) 134-135; 10 (1986) 205-214]. NMRI mice (8 animals per group) receive 10 µl of a 10 % solution of arachidonic acid [J.M. Young et al., J. Invest. Derm. 82 (1986) 367-371] in acetone or, respectively, 0.08 % cantharidin [K.E. Swingle et al., Arch. Int. Pharmacodyn. Ther. 254 (1981) 168-176] in acetone applied to the medial and lateral surface of the right external ear. Treatment is performed either prophylactically 30 minutes before irritation (arachidonic acid) or, respectively, either simultaneously with the application of irritant solution or therapeutically 20 minutes after irritation (cantharidin), by a single epicutaneous application of the test compound dissolved in a mixture of N,N-dimethylacetamide, acetone and alcohol (2:2:4). The evaluation of the test group is effected by comparison with a control group of animals having received on the right ear lobe only the carrier substance or the irritant solution. The animals are killed 1.5 hours (arachidonic acid) or, respectively, 17 hours (cantharidin) after application of the irritant and efficacy in assessed by determination of the differences in auricular weight. Differences in weights (D) of right (involved) and left (uninvolved) pinnae of animals treated with test compound and arachidonic acid or cantharidin (T-group) are compared with differences in mice treated with arachidonic acid only or cantharidin only (C-group). Efficacy (%) is calculated according to the equation: [formula]

The test system of test [4] is NMRI mice. In words: Cantharidin-induced pinnal swelling in mice (irritant contact dermatitis, 2.1.1.). The class given is in vivo. The following applies: epicutaneous, pinnal weight. The protocol:
as §1

Test [5] concerns NMRI mice. In words: Allergic contact dermatitis to oxazolone (2.3.). The class given is in vivo. To be noted: therapeutic, test concentration 3.6 %, topical twice, pinnal weight after 24 hours, 0̸ = no activity. As to the method:
Skin irritation with arachidonic acid or cantharidin is often used to experimentally induce inflammation in order to evaluate the anti-inflammatory activity of a compound [see e.g. Inflammation 8 (1984) 134-135; 10 (1986) 205-214]. NMRI mice (8 animals per group) receive 10 µl of a 10 % solution of arachidonic acid [J.M. Young et al., J. Invest. Derm. 82 (1986) 367-371] in acetone or, respectively, 0.08 % cantharidin [K.E. Swingle et al., Arch. Int. Pharmacodyn. Ther. 254 (1981) 168-176] in acetone applied to the medial and lateral surface of the right external ear. […] The animals are killed 1.5 hours (arachidonic acid) or, respectively, 17 hours (cantharidin) after application of the irritant and efficacy in assessed by determination of the differences in auricular weight. […] Efficacy (%) is calculated according to the equation: [formula]
The inhibition of allergic contact dermatitis to oxazolone in mice is determined. […] 24 hours after skin testing treatment-related inhibition of contact dermatitis is assessed by pinnal weight as described above (see 2.1.1.). […]

Like-named read-outs stand apart in the source and are kept apart here. Marks after values point to notes of the source that are not given here.

In the case of `CN(C/C=C/c1ccc(O)cc1)Cc1cccc2ccccc12` [compound of the invention, (E)-N-methyl-N-[3-(4-hydroxyphenyl)-2-propenyl]-1-naphthalene-methanamine], the IC50 in test [1] (read-out: IC₅₀ for LTC₄) was 8 µM; in test [1] (read-out: IC₅₀ for PGE₂), 1.5 µM; in test [1] (read-out: IC₅₀ for TXB₂), 6 µM; in test [2], 1 to 3 µM; with human keratinocytes it was 1 to 3 µM; in the test with neutrophils (read-out: IC₅₀ for FMLP-stimulated release of azurophil granule enzymes), more than 100 µM. Also, the IC50 in the test on neutrophils (read-out: IC₅₀ for FMLP-stimulated release of lysosomal enzymes) was more than 100 µM; with neutrophils (read-out: IC₅₀ for FMLP-stimulated release of specific granule enzymes), more than 100 µM; in the test on 5,12-lipoxygenase, 45 µM; in the test on bovine platelets (read-out: IC₅₀ for thrombin-stimulated release of N-glucosaminidase) it was more than 100 µM; with bovine platelets (read-out: IC₅₀ for thrombin-stimulated release of serotonin), more than 100 µM. Further, the “Efficacy (%)” value in the test with NMRI mice [3] (test concentration 1.2 %) was 33** %; in the test on NMRI mice [3] (test concentration 3.6 %), 48*** %; in the test with NMRI mice [4] (simultaneous, test concentration 1.2 %), 26%; with NMRI mice [4] (simultaneous, test concentration 3.6 %), 52** %; with NMRI mice [4] (therapeutic, test concentration 1.2 %), 25%; in the test with NMRI mice [4] (therapeutic, test concentration 3.6 %), 50** %. Moreover, in the test on NMRI mice [5], the “Efficacy (%)” value is recorded as 42** %.
